Key:
[1] = pH 8
[2] = molecular target: T1, cALDH-I (Rattus norvegicus, UniProt P51647); test: cALDH-I enzyme assay and inhibition studies; type: biochemical
T1 construct: made in house; host or cells: E. coli BL-21
T1 sequence (P51647 1-501): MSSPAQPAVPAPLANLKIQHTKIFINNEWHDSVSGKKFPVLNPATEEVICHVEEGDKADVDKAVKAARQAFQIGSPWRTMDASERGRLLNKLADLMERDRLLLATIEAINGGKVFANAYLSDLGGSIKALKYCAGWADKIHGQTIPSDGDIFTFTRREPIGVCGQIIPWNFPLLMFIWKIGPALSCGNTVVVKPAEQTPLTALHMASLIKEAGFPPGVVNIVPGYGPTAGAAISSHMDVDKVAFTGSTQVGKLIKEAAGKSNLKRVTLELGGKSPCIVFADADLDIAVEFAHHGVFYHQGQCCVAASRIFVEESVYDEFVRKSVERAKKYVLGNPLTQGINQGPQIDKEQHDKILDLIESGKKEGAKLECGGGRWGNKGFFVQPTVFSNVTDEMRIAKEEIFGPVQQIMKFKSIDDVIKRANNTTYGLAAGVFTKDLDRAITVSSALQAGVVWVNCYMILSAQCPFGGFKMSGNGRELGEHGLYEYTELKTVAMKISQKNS
Protocol: (§1) cALDH-I activity was determined at 25° C. in Tris buffer (20 mM Tris-HCl, pH 8, 100 mM NaCl). Purified cALDH-I (0.2 μM) was preincubated with 15 (2.5 μM-15 μM) in DMSO (30 μL, 3% total incubation vol) in a volume of 950 μL for 5 to 45 min. After preincubation of the enzyme with inhibitor, remaining catalytic activity was measured by adding NAD^+ (500 μM final concentration) and propionaldehyde (1 mM final concentration) in 50 μL of buffer. Production of NADH from the oxidation of propionaldehyde was monitored by measuring the change in absorbance at 340 nm for 2 min. In substrate competition assays, purified cALDH-I (0.2 μM) was preincubated with either NAD^+ (50 μM) or propionaldehyde (25 μM) and 10 μM of 15 for 10 minutes at 25° C. in a volume of 950 μL. Remaining catalytic activity was monitored as described above.

[3] = tested on: rat testis proteome; type: binding
[4] = molecular target: T1, cALDH-I; type: binding
[5] = tested on: trypsin; type: binding
[6] = tested on: serine hydrolases; type: binding, rat
[7] = substrate: CCC=O; test: cALDH-I enzyme assay and inhibition studies; type: biochemical, rat; details: other: His-tagged recombinant cALDH-I; pH 8.0; 25.0 °C
Protocol: as §1

Which “stability to assay conditions” value [1] does the source give for `CCCCCCCCOS(=O)(=O)c1ccccn1` [Sulfonate 15, 1-(2-Pyridylsulfonyl)oxo-octane] here?
Its value is “stable to the assay conditions employed”.

What about the “average Kobs/[I]” value [2] of the same molecule?
Its value is “(9.7+1.8)×10^3 M^−1min^−1”.

For `COc1ccc(S(=O)(=O)OCCCCCCCCCC(=O)NCCCCCNC(=O)CCCCC2SCC3NC(=O)NC32)cc1` (stereo not drawn) [Sulfonate 4, 10-((4-Methoxybenzenesulfonyl)oxo)-N-biotinamidopentyldecanamide], which “nonspecific (heat-insensitive) proteome reactivity” value [3] is on record?
Its value is “significant additional reactivity with the preheated proteome”.

With `CCCCCCCCS(=O)(=O)OCCCCCCCCCC(=O)NCCCCCNC(=O)CCCC[C@@H]1SC[C@@H]2NC(=O)N[C@@H]21` [Sulfonate 7, 10-((Octylsulfonyl)oxo)-N-biotinamidopentyldecanamide] as the molecule, how does the “specific (heat-sensitive) proteome reactivity” value [3] read?
The value was “All sulfonates except the octylsulfonate 7 labeled at least one member of the testis proteome in a heat-sensitive manner”.

With `O=C(CCCCCCCCCOS(=O)(=O)c1cccc2cccnc12)NCCCCCNC(=O)CCCCC1SCC2NC(=O)NC21` (stereo not drawn) [Sulfonate 9, 10-((8-Quinolinesulfonyl)oxo)-N-biotinamidopentyldecanamide] as the molecule, how does the “specific (heat-sensitive) proteome reactivity” value [3] read?
Its value is “reacted specifically with a 55 kDa protein, as well as two additional proteins”.

Which “specific (heat-sensitive) proteome reactivity” value [3] does the source give for `O=C(CCCCCCCCCOS(=O)(=O)c1ccc([N+](=O)[O-])cc1)NCCCCCNC(=O)CCCCC1SCC2NC(=O)NC21` (stereo not drawn) [Sulfonate 8, 10-((4-Nitrobenzenesulfonyl)oxo)-N-biotinamidopentyldecanamide] here?
The value was “reacted specifically with a 55 kDa protein, as well as two additional proteins”.

For `CS(=O)(=O)OCCCCCCCCCC(=O)NCCCCCNC(=O)CCCCC1SCC2NC(=O)NC21` (stereo not drawn) [Sulfonate 5, 10-((Methylsulfonyl)oxo)-N-biotinamidopentyldecanamide], which “nonspecific (heat-insensitive) proteome reactivity” value [3] is on record?
Its value is “significant additional reactivity with the preheated proteome”.

With `O=C(CCCCCCCCCOS(=O)(=O)c1ccccn1)NCCCCCNC(=O)CCCC[C@@H]1SC[C@@H]2NC(=O)N[C@@H]21` [Sulfonate 1, 10-((2-Pyridylsulfonyl)oxo)-N-biotinamidopentyldecanamide] as the molecule, how does the “labeling of 55-kDa protein in cALDH-I-transfected cells” value [4] read?
Its value is “labeled strongly”.

For `O=C(CCCCCCCCCOS(=O)(=O)c1cccs1)NCCCCCNC(=O)CCCCC1SCC2NC(=O)NC21` (stereo not drawn) [Sulfonate 11], which “specific (heat-sensitive) proteome reactivity” value [3] is on record?
Its value is “reacted specifically with a 55 kDa protein, as well as two additional proteins”.

B1: STI: Kunitz-type serine protease inhibitor, soybean trypsin inhibitor (protein, UniProt P01070 25-205, looked up)
Trypsin inhibitor A: DFVLDNEGNPLENGGTYYILSDITAFGGIRAAPTGNERCPLTVVQSRNELDKGIGTIISSPYRIRFIAEGHPLSLKFDSFAVIMLCVGIPTEWSVVEDLPEGPAVKIGENKDAMDGWFRLERVSDDEFNNYKLVFCPQQAEDDKCGDIGISIDHDDGTRRLVVSKNKPLVVQFQKLDKESL
Which “FP-biotin labeling of trypsin preincubated with STI” value [5] does the source give for B1 here?
The value was “did not label”.

And the “FP-biotin labeling intensities in STI-treated sample” value [6]?
Its value is “several, but not all FP-biotin reactive proteins showed significantly lower labeling intensities”.

B2: cALDH-I (Rattus norvegicus) (protein)
chain: MSSPAQPAVPAPLANLKIQHTKIFINNEWHDSVSGKKFPVLNPATEEVICHVEEGDKADVDKAVKAARQAFQIGSPWRTMDASERGRLLNKLADLMERDRLLLATIEAINGGKVFANAYLSDLGGSIKALKYCAGWADKIHGQTIPSDGDIFTFTRREPIGVCGQIIPWNFPLLMFIWKIGPALSCGNTVVVKPAEQTPLTALHMASLIKEAGFPPGVVNIVPGYGPTAGAAISSHMDVDKVAFTGSTQVGKLIKEAAGKSNLKRVTLELGGKSPCIVFADADLDIAVEFAHHGVFYHQGQCCVAASRIFVEESVYDEFVRKSVERAKKYVLGNPLTQGINQGPQIDKEQHDKILDLIESGKKEGAKLECGGGRWGNKGFFVQPTVFSNVTDEMRIAKEEIFGPVQQIMKFKSIDDVIKRANNTTYGLAAGVFTKDLDRAITVSSALQAGVVWVNCYMILSAQCPFGGFKMSGNGRELGEHGLYEYTELKTVAMKISQKNS
notes: made in house; host or cells: E. coli BL-21
With B2 as the molecule, how does the Km [7] read?
Its Km is 4.2 µM.
